Reference: patent publication US20170362228A1, “TETRAHYDRO-PYRIDO[3,4-b]INDOLE ESTROGEN RECEPTOR MODULATORS AND USES THEREOF” (Genentech, Inc., priority 2016, published 2017)
pEC50: −log10 of the molar value. Like-named read-outs stand apart in the source and are kept apart here.

Assays:
[1] = target: T1, estrogen receptor alpha (ESR1) (Homo sapiens, UniProt P03372); experiment: Breast Cancer Cell ERa High Content Fluorescence Imaging Degradation Assay (Example 901); format: cell-based; conditions: MCF7 breast cancer cells, 4 hours, plateau of the maximal effect
T1 construct: endogenous in cells; host or cells: MCF7 breast cancer cells
T1 sequence (P03372 1-595): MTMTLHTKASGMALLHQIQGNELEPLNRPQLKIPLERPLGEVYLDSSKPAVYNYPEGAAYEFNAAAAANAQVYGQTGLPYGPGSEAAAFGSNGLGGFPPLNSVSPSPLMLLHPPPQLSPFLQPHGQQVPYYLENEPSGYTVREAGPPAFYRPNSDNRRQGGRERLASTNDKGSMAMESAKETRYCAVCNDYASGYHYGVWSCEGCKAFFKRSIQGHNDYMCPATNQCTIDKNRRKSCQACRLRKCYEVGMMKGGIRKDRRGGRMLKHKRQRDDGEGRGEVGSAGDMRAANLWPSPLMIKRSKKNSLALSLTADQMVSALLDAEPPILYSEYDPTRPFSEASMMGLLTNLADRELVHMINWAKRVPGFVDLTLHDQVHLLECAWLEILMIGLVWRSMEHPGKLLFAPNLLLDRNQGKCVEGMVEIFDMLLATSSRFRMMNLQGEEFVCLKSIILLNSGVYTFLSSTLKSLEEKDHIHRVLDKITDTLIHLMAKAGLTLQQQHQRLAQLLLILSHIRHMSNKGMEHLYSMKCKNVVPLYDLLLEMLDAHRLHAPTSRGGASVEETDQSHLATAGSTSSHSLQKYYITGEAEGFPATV
How it was run: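 MCF7 cells in phenol red-free RPMI with 10% charcoal-stripped FBS, exposed to compound at 0.05–835 nM (10-point, 1.8×, duplicate; 0.84% DMSO) for 4 h at 37 °C. Fixed cells immunostained for ESR1 (F10 mAb, Alexa 488) with Hoechst nuclear mask; nuclear ESR1 intensity imaged per cell. DMSO and 5 nM fulvestrant set 0%/100%; EC50 and Sinf by robust fit.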

MCF7 cells = experiment: In vitro cell proliferation assays (Examples 902 and 903), MCF7; format: cell-based; conditions: Homo sapiens, read-out: ER-alpha MCF7 HCS (EC50)
[2] = Table 1a, DMSO and Fulvestrant define 0% and 100% changes in ESR1

Structure (SMILES)	ER-alpha MCF7 HCS (S inf) ([1]; Table 1b) [%]	pEC50 (MCF7 cells; MCF7, Table 1b)	ER-alpha MCF7 HCS (S inf) [1, 2] [%]	pEC50 (MCF7 cells; MCF7, Table 1a)
C[C@@H]1Cc2c([nH]c3ccccc23)[C@@H](c2c(F)cc([C@@H](F)C3CN(CCCF)C3)cc2F)N1C[C@@H](F)CO (single isomer, unassigned) [Compound 157]	−100	10.11	–	–
C[C@@H]1Cc2c([nH]c3ccccc23)[C@@H](c2c(F)cc(C(O)C3CN(CCCF)C3)cc2F)N1C[C@@](C)(F)CO (stereo partly drawn) [Compound 107, (2R)-3-((1R,3R)-1-(2,6-difluoro-4-((1-(3-fluoropropyl)azetidin-3-yl)(hydroxy)methyl)phenyl)-3-methyl-1,3,4,9-tetrahydro-2H-pyrido[3,4-b]indol-2-yl)-2-fluoro-2-methylpropan-1-ol]	–	–	−94.23	9.97
C[C@@H]1Cc2c([nH]c3cc(F)ccc23)[C@@H](c2c(F)cc([C@@H](O)C3CN(CCCF)C3)cc2F)N1CC(F)(F)CO [Compound 141, 3-((1R,3R)-1-(2,6-difluoro-4-((S)-(1-(3-fluoropropyl)azetidin-3-yl)(hydroxy)methyl)phenyl)-7-fluoro-3-methyl-1,3,4,9-tetrahydro-2H-pyrido[3,4-b]indol-2-yl)-2,2-difluoropropan-1-ol]	–	–	−100	8.89
C[C@@H]1Cc2c([nH]c3ccccc23)[C@@H](c2c(F)cc([C@H](O)C3CN(CCCF)C3)cc2F)N1C[C@H](F)CF [Compound 163]	−102	9.70	–	–
CO[C@H](c1cc(F)c([C@@H]2c3[nH]c4ccccc4c3C[C@@H](C)N2CC(F)(F)CO)c(F)c1)C1CN(CCCF)C1 [Compound 170, 3-((1R,3R)-1-(2,6-Difluoro-4-((S)-(1-(3-fluoropropyl)azetidin-3-yl)(methoxy)methyl)phenyl)-3-methyl-3,4-dihydro-1H-pyrido[3,4-b]indol-2(9H)-yl)-2,2-difluoropropan-1-ol]	−94	10.11	–	–
C[C@@H]1Cc2c([nH]c3ccccc23)[C@@H](c2ccc([C@@H](F)C3CN(CCCF)C3)cc2)N1CC(F)(F)CO [Compound 124, 2,2-difluoro-3-((1R,3R)-1-(4-((S)-fluoro(1-(3-fluoropropyl)azetidin-3-yl)methyl)phenyl)-3-methyl-1,3,4,9-tetrahydro-2H-pyrido[3,4-b]indol-2-yl)propan-1-ol]	–	–	−96.62	10.66
C[C@@H]1Cc2c([nH]c3cc(F)ccc23)[C@@H](c2c(F)cc([C@H](O)C3CN(CCCF)C3)cc2F)N1CC(F)(F)CO (single isomer, unassigned) [Compound 142]	–	–	−100	10.19
C[C@@H]1Cc2c([nH]c3ccccc23)[C@@H](c2ccc([C@H](O)C3CN(CCCF)C3)c(F)c2)N1CC(F)(F)CO [Compound 171, 2,2-difluoro-3-((1R,3R)-1-(3-fluoro-4-((R)-(1-(3-fluoropropyl)azetidin-3-yl)(hydroxy)methyl)phenyl)-3-methyl-1,3,4,9-tetrahydro-2H-pyrido[3,4-b]indol-2-yl)propan-1-ol]	−93	10.06	–	–
C[C@H]1Cc2c([nH]c3c(F)cccc23)[C@H](c2c(F)cc([C@@H](O)C3CN(CCCF)C3)cc2F)N1CC(F)(F)CO (single isomer, unassigned) [Compound 132]	–	–	−91	8.01
C[C@@H]1Cc2c([nH]c3ccccc23)[C@@H](c2ccc([C@@H](O)C3CN(CCCF)C3)cc2)N1CC(F)(F)CO [Compound 128, 2,2-difluoro-3-((1R,3R)-1-(4-((S)-(1-(3-fluoropropyl)azetidin-3-yl)(hydroxy)methyl)phenyl)-3-methyl-1,3,4,9-tetrahydro-2H-pyrido[3,4-b]indol-2-yl)propan-1-ol]	–	–	−97.31	10.06
C[C@@H]1Cc2c([nH]c3ccccc23)[C@@H](c2ccc([C@H](F)C3CN(CCCF)C3)cc2)N1CC(F)(F)CO [Compound 123]	–	–	−98.38	10.39
C[C@@H]1Cc2c([nH]c3ccccc23)[C@@H](c2ccc(C(O)C3CN(CCCF)C3)cc2)N1CC(F)(F)CO (stereo partly drawn) [Compound 117, 2,2-difluoro-3-((1R,3R)-1-(4-((1-(3-fluoropropyl)azetidin-3-yl)(hydroxy)methyl)phenyl)-3-methyl-1,3,4,9-tetrahydro-2H-pyrido[3,4-b]indol-2-yl)propan-1-ol]	–	–	−100	10.18
C[C@@H]1Cc2c([nH]c3ccc(F)cc23)[C@@H](c2c(F)cc([C@H](O)C3CN(CCCF)C3)cc2F)N1CC(F)(F)CO (single isomer, unassigned) [Compound 114]	–	–	−100.60	10.46

Results, then the molecule that gave them:

ER-alpha MCF7 HCS (S inf) ([1]; Table 1b) [%]	pEC50 (MCF7 cells; MCF7, Table 1b)	ER-alpha MCF7 HCS (S inf) [1, 2] [%]	pEC50 (MCF7 cells; MCF7, Table 1a)	Structure (SMILES)
−84	9.13	–	–	C[C@@H]1Cc2c([nH]c3ccccc23)[C@@H](c2c(F)cc([C@](C)(O)C3CN(CCCF)C3)cc2F)N1CC(F)(F)CO [Compound 155, 3-((1R,3R)-1-(2,6-difluoro-4-((R)-1-(1-(3-fluoropropyl)azetidin-3-yl)-1-hydroxyethyl)phenyl)-3-methyl-3,4-dihydro-1H-pyrido[3,4-b]indol-2(9H)-yl)-2,2-difluoropropan-1-ol]
–	–	−96.1	9.59	C[C@@H]1Cc2c([nH]c3ccccc23)[C@@H](c2c(F)cc(C(F)(F)C3CN(CCCF)C3)cc2F)N1CC(C)(C)F [Compound 146, (1R,3R)-1-(4-(Difluoro(1-(3-fluoropropyl)azetidin-3-yl)methyl)-2,6-difluorophenyl)-2-(2-fluoro-2-methylpropyl)-3-methyl-2,3,4,9-tetrahydro-1H-pyrido[3,4-b]indole]
–	–	−96.34	10.25	C[C@@H]1Cc2c([nH]c3ccccc23)[C@@H](c2c(F)cc(C(O)C3CN(CCCF)C3)cc2F)N1C[C@](C)(F)CO (stereo partly drawn) [Compound 108, (2S)-3-((1R,3R)-1-(2,6-difluoro-4-((1-(3-fluoropropyl)azetidin-3-yl)(hydroxy)methyl)phenyl)-3-methyl-1,3,4,9-tetrahydro-2H-pyrido[3,4-b]indol-2-yl)-2-fluoro-2-methylpropan-1-ol]
–	–	−98.93	10.07	C[C@@H]1Cc2c([nH]c3ccccc23)[C@@H](c2c(F)cc([C@H](O)C3CN(CCCF)C3)cc2F)N1CC(F)(F)F [Compound 119, (R)-(3,5-difluoro-4-((1R,3R)-3-methyl-2-(2,2,2-trifluoroethyl)-2,3,4,9-tetrahydro-1H-pyrido[3,4-b]indol-1-yl)phenyl)(1-(3-fluoropropyl)azetidin-3-yl)methanol]
–	–	−103	10.14	C[C@@H]1Cc2c([nH]c3ccccc23)[C@@H](c2c(F)cc(C(N)C3CN(CCCF)C3)cc2F)N1CC(F)(F)CO (stereo partly drawn) [Compound 145, 3-((1R,3R)-1-(4-(amino(1-(3-fluoropropyl)azetidin-3-yl)methyl)-2,6-difluorophenyl)-3-methyl-3,4-dihydro-1H-pyrido[3,4-b]indol-2(9H)-yl)-2,2-difluoropropan-1-ol]
–	–	−99.81	10.18	C[C@@H]1Cc2c([nH]c3ccccc23)[C@@H](c2c(F)cc([C@H](O)C3CN(CCCF)C3)cc2F)N1CC(F)(F)CO (single isomer, unassigned) [Compound 136]
